The values that follow come from article PMC5442318, “Hundreds of dual-stage antimalarial molecules discovered by a functional gametocyte screen” (Nature Communications, 2017).

The subject of series [1] is P. falciparum asexual blood stages. Particulars: TCAMS data, cited from earlier work; for IC50: ref 1 (Gamo et al., 2010), read-out: Pf Asexual blood stages XC50; for Pf Asexual stages XC50: ref 1 (Gamo, F. J. et al., Nature 465, 305-310, 2010).
Series [2] relates to P. falciparum stage V female gametocytes. Nature of the series: P. falciparum female gametocyte activation assay (Pf FGAA), 24 h or 48 h preincubation, Pfs25 expression readout. The series is classed as cell-based, Plasmodium falciparum NF54. Particulars: for Pf FGAA classification: SLOW / FAST / GAMETE from activity at 48h, 24h, 0h incubation. In outline:
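Female activation, triggered by xanthurenic acid and cooling, was scored by imaging Cy3-labelled anti-Pfs25 female gametes after 24 h at 26 °C. Beforehand, purified NF54 stage V gametocytes had been incubated with compound for either 24 h or 48 h (37 °C, 3% O2). Values are pIC50 from full-curve regression.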

The test system of series [3] is P. falciparum female gametes. In words: Pf FGAA with compounds added 30 min after triggering gametocyte activation (gamete-targeting). The series is classed as cell-based, Plasmodium falciparum NF54. The conditions noted are these: 0h incubation time.
In the next series the test system is HepG2 cells. In words: HepG2 cytotoxicity assay. The class given is cell-based. Summed up: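 Once incubation ended, the HepG2 plates were warmed to room temperature for 30 min alongside the CellTiter-Glo reagent. Luminescent signal was developed by reagent addition and stabilized for 10 min before plate reading.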
Series [4] concerns P. falciparum stages IV–V gametocytes. In words: Gametocytocidal ATP-depletion assay (gametocyte ATP bioluminescence). The class given is cell-based, Plasmodium falciparum. Summed up: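 Read-out is luciferase luminescence of parasite ATP (BacTiter-Glo), standing in for viability. Double-purified mature stage IV–V gametocytes, 12,500 per well, were exposed 48 h at 37 °C in low-O2 gas; screening concentration 2 μM.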

Where [5] appears, read: 24h incubation time, read-out: Pf FGAA IC50 (µM) 24h.
Where [6] appears, read: mean, read-out: Gametocytes mean Pf FGAA IC50.

Like-named read-outs stand apart in the source and are kept apart here.

As to `CC(Cc1ccc(NC(=O)c2ccc(CC(C)NCc3ccc(Cl)cc3)cc2)cc1)NCCc1cccc(Cl)c1` (centres unmarked) [TCMDC-139810], the IC50 is 450 nM in series [1], 9.9 µM in series [2] (setting [5]), 0.86 µM in series [2] (setting [6]) and greater than 20 µM in series [3]. For the same molecule, the “Pf Asexual stages XC50” value in series [1] is 450 nM. Also, the “Pf FGAA classification” value in series [2] is given as “SLOW”. For the same molecule, the “HepG2 cells mean TOX50” value with HepG2 cells is 4.03 µM. In addition, in series [4], the “Gametocytes mean ATP inhibition at 2µM (%)” value was -5.12%.

`CCCCCCCN1CC[C@@H](CCCc2ccnc3ccc(OC)cc23)[C@@H](CNC)C1.O=C(O)C(=O)O` [TCMDC-139875]: the IC50 in series [1] was 210 nM; in series [2] (setting [5]), 1.86 µM; in series [2] (setting [6]) it was 0.73 µM; in series [3] it was 14.4 µM. Besides, the “Pf Asexual stages XC50” value in series [1] is 210 nM. Moreover, the “Pf FGAA classification” value in series [2] is “FAST”. Moreover, the “HepG2 cells mean TOX50” value in the series on HepG2 cells was 5.89 µM. Moreover, in series [4], the “Gametocytes mean ATP inhibition at 2µM (%)” value turned out to be 9.45%.

What is called inhibition is how much of the control response was suppressed. With `CN(C)CCCNCc1ccc(-c2ccc(C(F)(F)F)cc2)cc1` [TCMDC-140011], the IC50 was 870 nM in series [1]; 1.87 µM in series [2] (Plasmodium falciparum, 24h incubation time, read-out: Pf FGAA IC50 (µM) 24h); 1.68 µM in series [2] (Plasmodium falciparum, mean, read-out: Gametocytes mean Pf FGAA IC50); greater than 20 µM in series [3] (Plasmodium falciparum). Besides, the “Pf Asexual stages XC50” value in series [1] was 870 nM. In addition, the “Pf FGAA classification” value in series [2] is “FAST”. Further, the Selectivity ratio in the series with HepG2 cells (HepG2 TOX50 vs Pf FGAA IC50) is listed as 2.92. For the same molecule, the “HepG2 cells mean TOX50” value in the series with HepG2 cells is 4.90 µM. The molecule further came in with an inhibition at 2 µM in series [4] (Plasmodium falciparum, mean) of 1.03%.

Take `COc1cccc(CCNC(C)Cc2ccc(OCCCCOc3ccccc3)cc2)c1` (centres unmarked) [TCMDC-140020]: the IC50 in series [1] is 740 nM; in series [2] (setting [5]), 3.72 µM; in series [2] (setting [6]) it was 1.51 µM; in series [3] it was greater than 20 µM. Besides, in series [1], the “Pf Asexual stages XC50” value is 740 nM. Moreover, the “Pf FGAA classification” value in series [2] is recorded as “SLOW”. In addition, the “HepG2 cells mean TOX50” value in the series with HepG2 cells is on record as 1.46 µM. In addition, in series [4], the “Gametocytes mean ATP inhibition at 2µM (%)” value was 8.01%.

Take `Nc1ccc2[nH]cc(C3CCN(CC4CCC(NC(=O)/C=C/c5ccc(Cl)c(Cl)c5)CC4)CC3)c2n1` (centres unmarked) [TCMDC-140064]: the IC50 is 730 nM in series [1], 6.18 µM in series [2] (setting [5]), 0.69 µM in series [2] (setting [6]) and greater than 20 µM in series [3]. Further, the “Pf Asexual stages XC50” value in series [1] was 730 nM. Further, the “Pf FGAA classification” value in series [2] is “SLOW”. For the same molecule, the “HepG2 cells mean TOX50” value with HepG2 cells stood at 12.59 µM. For the same molecule, in series [4], the “Gametocytes mean ATP inhibition at 2µM (%)” value is -8.60%.

As for `CC(=O)Nc1ccc2[nH]cc(C3CCN(CC4CCN(C(=O)/C=C/c5ccc(Cl)c(Cl)c5)CC4)CC3)c2n1` [TCMDC-140112], the IC50 in series [1] is 160 nM; in series [2] (setting [5]), 14.2 µM; in series [2] (setting [6]) it was 1.38 µM; in series [3], 13.1 µM. Moreover, the “Pf Asexual stages XC50” value in series [1] is 160 nM. Besides, the “Pf FGAA classification” value in series [2] is on record as “SLOW”. For the same molecule, the “HepG2 cells mean TOX50” value in the series on HepG2 cells stood at 12.59 µM. Moreover, the “Gametocytes mean ATP inhibition at 2µM (%)” value in series [4] is given as 8.03%.

As for `CC(=O)Nc1ccc2[nH]cc(C3CCN(CC4CCC(NC(=O)/C=C/c5ccc(Cl)c(Cl)c5)CC4)CC3)c2n1` (centres unmarked) [TCMDC-140114], the IC50 in series [1] is 260 nM; in series [2] (setting [5]), 15.5 µM; in series [2] (setting [6]), 1.74 µM; in series [3], greater than 20 µM. For the same molecule, the “Pf Asexual stages XC50” value in series [1] was 260 nM. The “Pf FGAA classification” value in series [2] is listed as “SLOW”. Also, the “HepG2 cells mean TOX50” value with HepG2 cells was 13.49 µM. Moreover, the “Gametocytes mean ATP inhibition at 2µM (%)” value in series [4] is -7.40%.

Turning to `CCN(CC)CCN(Cc1ccc(-c2ccc(Cl)cc2)cc1)C(=O)Cn1cc(CN(C)C)c(=O)nc1SCc1ccc(F)cc1` [TCMDC-140406], the IC50 is 750 nM in series [1], 9.4 µM in series [2] (setting [5]), 1.38 µM in series [2] (setting [6]) and greater than 20 µM in series [3]. The “Pf Asexual stages XC50” value in series [1] is 750 nM. Besides, the “Pf FGAA classification” value in series [2] was “SLOW”. Besides, the “HepG2 cells mean TOX50” value in the series on HepG2 cells was determined as 6.61 µM. For the same molecule, the “Gametocytes mean ATP inhibition at 2µM (%)” value in series [4] was -10.76%.

For `CN1CCN(CCCNCc2ccccc2-c2cccc(CNCc3ccc4c(c3)OCO4)c2)CC1.O=C(O)C(F)(F)F` [TCMDC-140476], the IC50 is 790 nM in series [1], 5.7 µM in series [2] (setting [5]), 1.64 µM in series [2] (setting [6]) and greater than 20 µM in series [3]. For the same molecule, in series [1], the “Pf Asexual stages XC50” value was 1070 nM. Moreover, the “Pf FGAA classification” value in series [2] is “SLOW”. Moreover, the “HepG2 cells mean TOX50” value in the series on HepG2 cells was 1.51 µM. In series [4], the “Gametocytes mean ATP inhibition at 2µM (%)” value was -1.87%.

Consider `CC(C)(CN)c1nc(-c2ccc(Br)c(O)c2)c(-c2ccncc2)[nH]1.Cl` [TCMDC-140680], for which the IC50 in series [1] was 960 nM; in series [2] (setting [5]), 0.79 µM; in series [2] (setting [6]) it was 0.84 µM; in series [3], 0.49 µM. In series [1], the “Pf Asexual stages XC50” value is 390 nM. For the same molecule, in series [2], the “Pf FGAA classification” value is reported as “GAMETE”. For the same molecule, the “HepG2 cells mean TOX50” value with HepG2 cells worked out at 45.82 µM. Moreover, the “Gametocytes mean ATP inhibition at 2µM (%)” value in series [4] is listed as -3.29%.

As to `N=C(N)Nc1nc(-c2ccc(NCc3ccc(CNc4cccc(-c5csc(NC(=N)N)n5)c4)cc3)cc2)cs1` [TCMDC-140699], the IC50 in series [1] is 310 nM; in series [2] (setting [5]), 0.14 µM; in series [2] (setting [6]), 0.9 µM; in series [3], 0.89 µM. Besides, in series [1], the “Pf Asexual stages XC50” value was 310 nM. Further, the “Pf FGAA classification” value in series [2] is on record as “GAMETE”. Further, the “HepG2 cells mean TOX50” value with HepG2 cells is 4.79 µM. Further, the “Gametocytes mean ATP inhibition at 2µM (%)” value in series [4] is on record as 23.62%.

For `CN1CCC=C(C(=O)NCC(C)(C)c2nc(-c3ccc(Cl)c(O)c3)c(-c3ccncc3)[nH]2)C1.Cl` [TCMDC-140700], the IC50 in series [1] is 1000 nM; in series [2] (setting [5]), 4.68 µM; in series [2] (setting [6]), 1.91 µM; in series [3], 1.61 µM. In addition, the “Pf Asexual stages XC50” value in series [1] is 1000 nM. Moreover, the “Pf FGAA classification” value in series [2] is recorded as “GAMETE”. Also, in the series with HepG2 cells, the “HepG2 cells mean TOX50” value is 13.36 µM. Also, the “Gametocytes mean ATP inhibition at 2µM (%)” value in series [4] was -6.01%.

With `CN(C)CCOc1ccc(NC(=O)NC(C)(C)c2nc(-c3ccc(Cl)c(O)c3)c(-c3ccncc3)[nH]2)cc1.Cl` [TCMDC-140744], the IC50 in series [1] was 110 nM; in series [2] (setting [5]), 0.23 µM; in series [2] (setting [6]) it was 0.73 µM; in series [3], 10.6 µM. Besides, the “Pf Asexual stages XC50” value in series [1] is 110 nM. The “Pf FGAA classification” value in series [2] is reported as “FAST”. In addition, the “HepG2 cells mean TOX50” value in the series on HepG2 cells stood at 14.30 µM. In addition, the “Gametocytes mean ATP inhibition at 2µM (%)” value in series [4] is -0.87%.

`CNCC(C)(C)c1nc(-c2ccc(Cl)c(O)c2)c(-c2ccncc2)[nH]1.Cl` [TCMDC-140762]: the IC50 in series [1] is 740 nM; in series [2] (setting [5]), 1.06 µM; in series [2] (setting [6]), 0.88 µM; in series [3] it was 0.61 µM. The “Pf Asexual stages XC50” value in series [1] was 740 nM. Moreover, the “Pf FGAA classification” value in series [2] is on record as “GAMETE”. In addition, in the series on HepG2 cells, the “HepG2 cells mean TOX50” value turned out to be 13.52 µM. Moreover, in series [4], the “Gametocytes mean ATP inhibition at 2µM (%)” value was -1.34%.
